# pIC50: −log10 of the molar value. Where two headings read alike, the source gives them in different places.
# How the values were obtained:
# Lewis lung cancer = details: Lewis lung cancer; for Body weight of the animals, end, First time / Body weight of the animals, end, Second time: ip × 10qd; for Inhibition rate (%) Lewis cancer: comparison table 43, in vivo;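 on all read-outs here: mice implanted subcutaneously in the axilla with Lewis lung tumor cells, treated starting the following day, killed roughly three weeks after implantation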
# PLA-801 = experiment: In vitro cytotoxicity, IC50 by MTT method, PLA-801; assay type: cell-based; details: PLA-801, MTT; read-out: IC50
# In short: (§1)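 MTT viability, 48 h exposure: cells 10^5/ml in RPMI1640 + 10% FBS, 37 °C/5% CO2; MTT 4 h, DMSO solubilisation, A490.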
# Lovo = experiment: In vitro cytotoxicity, IC50 by MTT method, Lovo; assay type: cell-based; details: Homo sapiens; Lovo, MTT; read-out: IC50
# In short: as §1
# Kunming mice = details: for Death rate: single i.p.
# in vivo = details: both, Kunming, mouse, ip
# Hela = experiment: In vitro cytotoxicity, IC50 by MTT method, Hela; assay type: cell-based; details: Homo sapiens; Hela, MTT; read-out: IC50
# In short: as §1
# HepG2 = experiment: In vitro cytotoxicity, IC50 by MTT method, HepG2; assay type: cell-based, human; details: Homo sapiens; HepG2, MTT; read-out: IC50
# In short: as §1
# S180 sarcoma = details: S180 sarcoma; for Body weight of the animals, beginning, First time / Body weight of the animals, end, First time / Inhibition rate, First time / Weight of the tumor X ± SD, First time / Body weight of the animals, beginning, Second time / Body weight of the animals, end, Second time / Inhibition rate, Second time: ip × 10qd; for Inhibition rate (%) S180 sarcomata: comparison table 43, in vivo
# BGC-823 = experiment: In vitro cytotoxicity, IC50 by MTT method, BGC-823; assay type: cell-based; details: Homo sapiens, BGC-823; BGC823, MTT; read-out: IC50
# In short: as §1
# NIH3T3 = experiment: In vitro cytotoxicity, IC50 by MTT method, NIH3T3; assay type: cell-based; details: Mus musculus; NIH3T3, MTT; read-out: IC50
# In short: as §1
# Bel-7402 = experiment: In vitro cytotoxicity, IC50 by MTT method, Bel-7402; assay type: cell-based; details: Homo sapiens, Bel-7402; BeI7402, MTT; read-out: IC50
# In short: as §1
# [1] = 50% male 50% female mice, 240 mg/kg
# [2] = 50% male 50% female mice, 300 mg/kg
# 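Wherever Death rate is given: acute toxicity in Kunming mice grouped by sex, one intraperitoneal dose at five graded levels in Tween-80 plus 0.5% CMC-Na, deaths monitored over two weeks.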
# 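Wherever LD50 is given: acute toxicity in Kunming mice grouped by sex, one intraperitoneal dose at five graded levels in Tween-80 plus 0.5% CMC-Na, deaths monitored over two weeks.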
# 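Wherever MTD is given: acute toxicity in Kunming mice grouped by sex, one intraperitoneal dose at five graded levels in Tween-80 plus 0.5% CMC-Na, deaths monitored over two weeks.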
# 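Wherever Sex is given: acute toxicity in Kunming mice grouped by sex, one intraperitoneal dose at five graded levels in Tween-80 plus 0.5% CMC-Na, deaths monitored over two weeks.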
structure (smiles),measurement,setting,value
"CCOC(=O)c1cc2c([nH]c3ccccc32)c(C)n1 [Compound 11, ethyl 1-methyl-β-carboline-3-carboxylate]","Body weight of the animals, end, First time",Lewis lung cancer; Dosage 25 (mg/ml),23.4 g
same,"Body weight of the animals, end, Second time",Lewis lung cancer; Dosage 25 (mg/ml),24.5 g
same,"Body weight of the animals, beginning, First time","Lewis lung cancer; Dosage 25, ip × 10qd",18.7 g
same,"Inhibition rate, First time","Lewis lung cancer; Dosage 25, ip × 10qd",29.08%
same,"Weight of the tumor X ± SD, First time","Lewis lung cancer; Dosage 25, ip × 10qd",1.78 ± 0.16 g
same,"Body weight of the animals, beginning, Second time","Lewis lung cancer; Dosage 25, ip × 10qd",19.9 g
same,"Inhibition rate, Second time","Lewis lung cancer; Dosage 25, ip × 10qd",33.05%
same,"Weight of the tumor X ± SD, Second time","Lewis lung cancer; Dosage 25, ip × 10qd",1.58 ± 0.09 g
same,"Body weight of the animals, end, First time",Lewis lung cancer; Dosage 50 (mg/ml),23.0 g
same,"Body weight of the animals, end, Second time",Lewis lung cancer; Dosage 50 (mg/ml),23.8 g
same,"Body weight of the animals, beginning, First time","Lewis lung cancer; Dosage 50, ip × 10qd",18.3 g
same,"Inhibition rate, First time","Lewis lung cancer; Dosage 50, ip × 10qd",44.22%
same,"Weight of the tumor X ± SD, First time","Lewis lung cancer; Dosage 50, ip × 10qd",1.40 ± 0.16 g
same,"Body weight of the animals, beginning, Second time","Lewis lung cancer; Dosage 50, ip × 10qd",19.8 g
same,"Inhibition rate, Second time","Lewis lung cancer; Dosage 50, ip × 10qd",42.8%
same,"Weight of the tumor X ± SD, Second time","Lewis lung cancer; Dosage 50, ip × 10qd",1.35 ± 0.14 g
same,Inhibition rate (%) Lewis cancer,Lewis lung cancer,44.22%
same,pIC50,PLA-801,3.59
same,pIC50,Lovo,4.10
same,Death rate,Kunming mice; [1],90
same,Death rate,Kunming mice; [2],100
same,Death rate,"Kunming mice; female mice, 240 mg/kg",100
same,Death rate,"Kunming mice; female mice, 300 mg/kg",100
same,Death rate,"Kunming mice; male mice, 240 mg/kg",80
same,Death rate,"Kunming mice; male mice, 300 mg/kg",100
same,LD50,"Kunming mice; mouse, in vivo, ip",159 to 211 mg/kg
same,LD50 at 2 weeks,in vivo,183 mg/kg
same,pIC50,Hela,4.00
same,pIC50,HepG2,4.05
same,"Body weight of the animals, beginning, First time",S180 sarcoma; Dosage 25 (mg/ml),19.5 g
same,"Body weight of the animals, end, First time",S180 sarcoma; Dosage 25 (mg/ml),26.3 g
same,"Inhibition rate, First time",S180 sarcoma; Dosage 25 (mg/ml),34.74%
same,"Weight of the tumor X ± SD, First time",S180 sarcoma; Dosage 25 (mg/ml),1.86 ± 0.18 g
same,"Body weight of the animals, beginning, Second time",S180 sarcoma; Dosage 25 (mg/ml),20.4 g
same,"Body weight of the animals, end, Second time",S180 sarcoma; Dosage 25 (mg/ml),24.2 g
same,"Inhibition rate, Second time",S180 sarcoma; Dosage 25 (mg/ml),31.93%
same,"Weight of the tumor X ± SD, Second time","S180 sarcoma; Dosage 25, ip × 10qd",1.94 ± 0.16 g
same,"Body weight of the animals, beginning, First time",S180 sarcoma; Dosage 50 (mg/ml),19.5 g
same,"Body weight of the animals, end, First time",S180 sarcoma; Dosage 50 (mg/ml),25.9 g
same,"Inhibition rate, First time",S180 sarcoma; Dosage 50 (mg/ml),44.21%
same,"Weight of the tumor X ± SD, First time",S180 sarcoma; Dosage 50 (mg/ml),1.59 ± 0.16 g
same,"Body weight of the animals, beginning, Second time",S180 sarcoma; Dosage 50 (mg/ml),20.6 g
same,"Body weight of the animals, end, Second time",S180 sarcoma; Dosage 50 (mg/ml),23.9 g
same,"Inhibition rate, Second time",S180 sarcoma; Dosage 50 (mg/ml),43.16%
same,"Weight of the tumor X ± SD, Second time","S180 sarcoma; Dosage 50, ip × 10qd",1.62 ± 0.38 g
same,Inhibition rate (%) S180 sarcomata,S180 sarcoma,44.21%
same,pIC50,BGC-823,3.96
same,pIC50,NIH3T3,4.00
same,pIC50,Bel-7402,3.64
"COC(=O)c1cc2c([nH]c3ccccc32)c(-c2ccc(O)cc2)n1 [Compound 16, methyl 1-(4-hydroxyphenyl)-β-carboline-3-carboxylate]",Inhibition rate (%) Lewis cancer,Lewis lung cancer,37.86%
same,pIC50,PLA-801,2.99
same,pIC50,Lovo,3.21
same,Death rate,Kunming mice; [1],0
same,Death rate,Kunming mice; [2],30
same,Sex,"Kunming mice; both, Kunming, mouse, in vivo, ip, 2 weeks",240
same,Death rate,"Kunming mice; female mice, 240 mg/kg",0
same,Death rate,"Kunming mice; female mice, 300 mg/kg",40
same,Death rate,"Kunming mice; male mice, 240 mg/kg",0
same,Death rate,"Kunming mice; male mice, 300 mg/kg",20
same,MTD at 2 weeks,in vivo,240 mg/kg
same,pIC50,Hela,3.82
same,pIC50,HepG2,< 2.30
same,Inhibition rate (%) S180 sarcomata,S180 sarcoma,32.96%
same,pIC50,BGC-823,3.01
same,pIC50,NIH3T3,2.66
same,pIC50,Bel-7402,2.97

# From patent US20090227619A1, “Harmine derivatives, intermediates used in their preparations, preparation processes and use therefo” (priority 2003, published 2009)
